From ChEMBL document CHEMBL1201862, “PubChem BioAssay data set” (2004)
Activity calls are given as the source filed them.

How the values were obtained:
[1] = target: T1, Sentrin-specific protease 7 (Homo sapiens, UniProt Q9BQF6); assay type: functional;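 further: Luminescence-based dose-response confirmation of ultra-high-throughput screening hits, measuring inhibition of SENP7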
T1 sequence (Q9BQF6 whole entry): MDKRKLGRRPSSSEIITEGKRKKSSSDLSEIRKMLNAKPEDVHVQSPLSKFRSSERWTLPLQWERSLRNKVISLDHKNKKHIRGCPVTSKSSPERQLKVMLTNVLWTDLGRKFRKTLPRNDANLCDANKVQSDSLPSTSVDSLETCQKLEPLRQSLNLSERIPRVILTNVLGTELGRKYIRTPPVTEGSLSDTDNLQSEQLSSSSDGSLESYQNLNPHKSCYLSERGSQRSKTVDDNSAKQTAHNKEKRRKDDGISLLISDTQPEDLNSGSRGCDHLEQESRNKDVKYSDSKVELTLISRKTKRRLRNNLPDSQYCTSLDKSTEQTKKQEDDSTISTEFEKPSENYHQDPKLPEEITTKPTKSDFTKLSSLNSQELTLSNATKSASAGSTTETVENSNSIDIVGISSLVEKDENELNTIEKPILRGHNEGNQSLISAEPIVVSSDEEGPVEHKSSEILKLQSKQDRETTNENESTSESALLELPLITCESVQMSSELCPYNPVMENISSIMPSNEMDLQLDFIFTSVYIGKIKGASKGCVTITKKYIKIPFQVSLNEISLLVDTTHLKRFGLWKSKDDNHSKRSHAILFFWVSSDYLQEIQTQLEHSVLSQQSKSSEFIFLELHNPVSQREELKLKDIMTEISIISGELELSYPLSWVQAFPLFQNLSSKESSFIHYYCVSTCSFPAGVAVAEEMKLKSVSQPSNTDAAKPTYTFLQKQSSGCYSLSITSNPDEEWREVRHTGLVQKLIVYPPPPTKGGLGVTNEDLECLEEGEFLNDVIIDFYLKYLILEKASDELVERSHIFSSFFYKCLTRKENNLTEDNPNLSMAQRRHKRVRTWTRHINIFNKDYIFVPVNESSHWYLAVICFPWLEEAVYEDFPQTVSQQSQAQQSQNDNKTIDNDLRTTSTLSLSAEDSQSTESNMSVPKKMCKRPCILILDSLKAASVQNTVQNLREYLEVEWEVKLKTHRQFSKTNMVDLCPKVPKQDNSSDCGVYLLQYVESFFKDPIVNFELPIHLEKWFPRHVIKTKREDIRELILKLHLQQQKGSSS

[2] = target: T2, Sentrin-specific protease 6 (Homo sapiens, UniProt Q9GZR1); assay type: functional;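 further: Luminescence-based dose-response confirmatory assay of SENP6 inhibition, following up an ultra-high-throughput screen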
T2 sequence (Q9GZR1 whole entry): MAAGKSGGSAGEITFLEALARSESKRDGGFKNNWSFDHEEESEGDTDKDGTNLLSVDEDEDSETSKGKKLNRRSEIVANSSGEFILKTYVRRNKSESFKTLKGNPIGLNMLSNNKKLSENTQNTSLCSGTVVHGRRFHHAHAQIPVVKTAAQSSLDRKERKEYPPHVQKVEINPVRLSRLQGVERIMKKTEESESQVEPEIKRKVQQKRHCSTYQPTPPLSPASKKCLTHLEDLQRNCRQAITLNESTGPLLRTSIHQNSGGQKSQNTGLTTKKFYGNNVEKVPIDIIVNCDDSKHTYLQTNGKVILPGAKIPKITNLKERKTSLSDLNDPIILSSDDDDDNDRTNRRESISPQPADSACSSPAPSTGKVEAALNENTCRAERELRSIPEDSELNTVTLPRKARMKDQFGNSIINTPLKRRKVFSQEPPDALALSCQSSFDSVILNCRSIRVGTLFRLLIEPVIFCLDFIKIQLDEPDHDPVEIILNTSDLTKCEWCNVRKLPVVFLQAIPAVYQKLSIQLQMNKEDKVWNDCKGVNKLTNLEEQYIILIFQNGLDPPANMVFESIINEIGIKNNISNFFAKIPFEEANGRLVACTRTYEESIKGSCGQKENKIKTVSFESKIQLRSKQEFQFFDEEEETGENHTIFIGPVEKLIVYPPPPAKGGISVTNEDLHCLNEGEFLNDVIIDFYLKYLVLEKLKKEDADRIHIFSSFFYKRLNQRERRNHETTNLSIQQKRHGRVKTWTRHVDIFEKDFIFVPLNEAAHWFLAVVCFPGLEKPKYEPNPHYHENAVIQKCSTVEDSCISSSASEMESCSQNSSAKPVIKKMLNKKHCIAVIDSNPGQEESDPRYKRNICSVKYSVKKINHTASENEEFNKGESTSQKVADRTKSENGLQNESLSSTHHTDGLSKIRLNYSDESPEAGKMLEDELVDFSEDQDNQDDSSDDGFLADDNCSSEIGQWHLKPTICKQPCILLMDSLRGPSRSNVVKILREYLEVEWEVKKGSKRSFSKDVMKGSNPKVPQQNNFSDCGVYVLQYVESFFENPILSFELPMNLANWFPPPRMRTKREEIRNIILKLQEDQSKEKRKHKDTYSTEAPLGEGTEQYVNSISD

[3] = target: T3, Caspase-3 (Homo sapiens, UniProt P42574); assay type: functional;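 further: Dose-response selectivity test against caspase-3 for candidate inhibitors of sentrin-specific proteases (SENPs)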
T3 sequence (P42574 whole entry): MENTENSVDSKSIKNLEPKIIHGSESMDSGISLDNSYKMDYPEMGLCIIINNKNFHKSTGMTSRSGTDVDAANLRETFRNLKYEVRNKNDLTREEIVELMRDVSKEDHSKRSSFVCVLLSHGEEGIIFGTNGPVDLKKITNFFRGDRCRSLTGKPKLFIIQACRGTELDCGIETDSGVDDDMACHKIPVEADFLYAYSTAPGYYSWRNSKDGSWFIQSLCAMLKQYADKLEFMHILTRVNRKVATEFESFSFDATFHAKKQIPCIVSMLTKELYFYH

[4] = test system: Jurkat; test: blockers of NF-kB activation in T cells – Jurkat, luciferase reporter, luminescence, B- and T-cell, dose response (AID 489004); assay type: functional, cell-based; settings: Homo sapiens;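 further: NF-kB luciferase reporter Jurkat cells stimulated with PMA plus ionomycin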
[5] = target: Intestinal-type alkaline phosphatase (Homo sapiens, UniProt P09923); test: Dose Response confirmation of uHTS hits from a small molecule inhibitors of human intestinal alkaline phosphatase via a luminescent assay. [Related pubchem assays (depositor defined):AID2544, AID2574]; assay type: functional
[6] = target: Heat shock protein HSP 90-alpha (Homo sapiens, UniProt P07900); assay type: functional, organism-based
[7] = target: Phosphorylase b kinase gamma catalytic chain, liver/testis isoform (Homo sapiens, UniProt P15735); assay type: functional;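 further: PHKG2 measured as one member of a kinome-wide kinase panel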
[8] = target: Tyrosine-protein kinase receptor TYRO3 (Homo sapiens, UniProt Q06418); assay type: functional;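 further: TYRO3 value obtained as one member of a kinome-wide profiling panel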
[9] = target: Receptor tyrosine-protein kinase erbB-2 (Homo sapiens, UniProt P04626); test: Navigating the Kinome. Panel member name: ERBB2; assay type: functional
[10] = target: BDNF/NT-3 growth factors receptor (Homo sapiens, UniProt Q16620); assay type: functional;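 further: NTRK2 measured as one member of a broad kinome-wide kinase profiling panel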
[11] = target: Tyrosine-protein kinase Lyn (Homo sapiens, UniProt P07948); assay type: functional;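 further: lyn as one member of a kinase panel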
[12] = target: Dual specificity tyrosine-phosphorylation-regulated kinase 4 (Homo sapiens, UniProt Q9NR20); assay type: functional
Chain of Dual specificity tyrosine-phosphorylation-regulated kinase 4 (Q9NR20 whole entry): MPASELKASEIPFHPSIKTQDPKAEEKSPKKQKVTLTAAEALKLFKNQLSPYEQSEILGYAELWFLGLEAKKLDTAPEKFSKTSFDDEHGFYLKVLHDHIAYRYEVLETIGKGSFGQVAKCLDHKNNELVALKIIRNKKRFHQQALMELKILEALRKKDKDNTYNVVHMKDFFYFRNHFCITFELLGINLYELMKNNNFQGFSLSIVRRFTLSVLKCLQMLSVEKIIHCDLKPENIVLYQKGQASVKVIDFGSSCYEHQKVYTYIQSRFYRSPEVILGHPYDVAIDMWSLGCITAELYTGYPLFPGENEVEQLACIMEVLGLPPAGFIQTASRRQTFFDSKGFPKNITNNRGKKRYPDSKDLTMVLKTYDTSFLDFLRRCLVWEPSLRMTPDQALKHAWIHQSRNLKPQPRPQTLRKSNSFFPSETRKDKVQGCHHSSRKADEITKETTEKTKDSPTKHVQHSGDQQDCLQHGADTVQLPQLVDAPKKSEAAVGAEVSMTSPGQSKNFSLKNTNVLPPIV

Chain of Phosphorylase b kinase gamma catalytic chain, liver/testis isoform (P15735 whole entry, canonical isoform): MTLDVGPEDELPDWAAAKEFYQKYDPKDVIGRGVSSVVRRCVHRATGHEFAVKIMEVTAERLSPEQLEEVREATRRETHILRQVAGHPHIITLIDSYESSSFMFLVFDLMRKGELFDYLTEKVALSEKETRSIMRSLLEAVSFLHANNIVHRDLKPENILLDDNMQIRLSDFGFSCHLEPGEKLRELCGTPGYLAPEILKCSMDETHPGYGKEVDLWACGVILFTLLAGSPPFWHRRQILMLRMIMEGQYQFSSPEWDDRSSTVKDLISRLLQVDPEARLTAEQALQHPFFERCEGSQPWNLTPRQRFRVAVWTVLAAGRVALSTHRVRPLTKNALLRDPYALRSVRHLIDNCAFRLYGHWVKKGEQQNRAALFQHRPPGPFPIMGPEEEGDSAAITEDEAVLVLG
Chain of Tyrosine-protein kinase receptor TYRO3 (Q06418 whole entry): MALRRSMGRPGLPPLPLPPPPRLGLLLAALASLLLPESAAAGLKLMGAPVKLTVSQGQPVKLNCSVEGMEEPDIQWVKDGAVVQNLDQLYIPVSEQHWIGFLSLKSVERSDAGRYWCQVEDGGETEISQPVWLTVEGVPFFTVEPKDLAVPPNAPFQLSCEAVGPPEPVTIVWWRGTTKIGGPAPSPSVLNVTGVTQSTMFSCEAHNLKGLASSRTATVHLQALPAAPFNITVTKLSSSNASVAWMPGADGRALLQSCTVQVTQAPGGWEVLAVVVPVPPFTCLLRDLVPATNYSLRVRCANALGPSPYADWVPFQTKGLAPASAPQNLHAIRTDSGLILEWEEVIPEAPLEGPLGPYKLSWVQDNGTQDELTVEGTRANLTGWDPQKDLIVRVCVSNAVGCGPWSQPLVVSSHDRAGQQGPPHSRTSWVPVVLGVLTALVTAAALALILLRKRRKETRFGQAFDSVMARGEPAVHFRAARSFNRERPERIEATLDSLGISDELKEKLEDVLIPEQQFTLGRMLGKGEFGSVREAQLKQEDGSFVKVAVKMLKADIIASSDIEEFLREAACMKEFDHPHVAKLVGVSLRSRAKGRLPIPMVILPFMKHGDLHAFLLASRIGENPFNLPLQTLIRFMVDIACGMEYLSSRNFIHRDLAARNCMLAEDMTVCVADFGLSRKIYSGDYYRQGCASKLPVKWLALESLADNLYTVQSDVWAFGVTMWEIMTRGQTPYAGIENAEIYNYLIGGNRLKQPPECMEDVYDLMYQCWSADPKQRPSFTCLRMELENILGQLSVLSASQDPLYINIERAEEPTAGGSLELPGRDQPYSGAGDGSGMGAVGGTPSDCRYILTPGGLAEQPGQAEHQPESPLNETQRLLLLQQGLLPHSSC
Chain of Receptor tyrosine-protein kinase erbB-2 (P04626 whole entry): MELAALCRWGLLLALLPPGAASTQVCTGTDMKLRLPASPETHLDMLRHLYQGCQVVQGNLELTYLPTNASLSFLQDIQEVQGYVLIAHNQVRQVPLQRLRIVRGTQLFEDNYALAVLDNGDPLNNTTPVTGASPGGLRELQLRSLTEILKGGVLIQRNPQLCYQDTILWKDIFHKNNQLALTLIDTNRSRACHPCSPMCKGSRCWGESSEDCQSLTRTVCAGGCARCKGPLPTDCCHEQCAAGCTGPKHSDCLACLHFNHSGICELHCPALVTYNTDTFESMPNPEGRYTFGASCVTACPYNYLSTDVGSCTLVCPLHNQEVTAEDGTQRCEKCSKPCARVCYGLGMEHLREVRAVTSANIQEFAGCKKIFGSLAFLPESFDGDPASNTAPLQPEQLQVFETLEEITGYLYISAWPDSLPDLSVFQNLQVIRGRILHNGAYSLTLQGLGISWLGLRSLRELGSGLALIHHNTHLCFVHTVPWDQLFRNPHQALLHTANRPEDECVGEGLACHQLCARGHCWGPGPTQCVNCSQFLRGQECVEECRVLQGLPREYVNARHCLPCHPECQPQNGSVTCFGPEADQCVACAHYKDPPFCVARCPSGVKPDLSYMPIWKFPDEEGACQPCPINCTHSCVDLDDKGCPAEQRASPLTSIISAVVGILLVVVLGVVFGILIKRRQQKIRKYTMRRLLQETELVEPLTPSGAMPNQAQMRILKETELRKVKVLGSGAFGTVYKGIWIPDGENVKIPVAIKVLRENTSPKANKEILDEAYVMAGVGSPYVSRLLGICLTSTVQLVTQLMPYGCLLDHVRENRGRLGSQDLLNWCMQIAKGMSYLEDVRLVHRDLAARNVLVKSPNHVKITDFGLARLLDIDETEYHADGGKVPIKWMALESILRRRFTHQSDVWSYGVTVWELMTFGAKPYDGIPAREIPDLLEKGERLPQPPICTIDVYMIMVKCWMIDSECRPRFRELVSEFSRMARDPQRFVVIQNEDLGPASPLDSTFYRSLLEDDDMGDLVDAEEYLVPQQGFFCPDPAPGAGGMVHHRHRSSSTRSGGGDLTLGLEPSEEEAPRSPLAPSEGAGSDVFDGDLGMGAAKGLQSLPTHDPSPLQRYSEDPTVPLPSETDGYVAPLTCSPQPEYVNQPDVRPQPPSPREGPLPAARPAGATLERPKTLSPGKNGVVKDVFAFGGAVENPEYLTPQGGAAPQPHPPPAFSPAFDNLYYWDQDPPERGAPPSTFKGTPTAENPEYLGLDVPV
Chain of Tyrosine-protein kinase Lyn (P07948 whole entry): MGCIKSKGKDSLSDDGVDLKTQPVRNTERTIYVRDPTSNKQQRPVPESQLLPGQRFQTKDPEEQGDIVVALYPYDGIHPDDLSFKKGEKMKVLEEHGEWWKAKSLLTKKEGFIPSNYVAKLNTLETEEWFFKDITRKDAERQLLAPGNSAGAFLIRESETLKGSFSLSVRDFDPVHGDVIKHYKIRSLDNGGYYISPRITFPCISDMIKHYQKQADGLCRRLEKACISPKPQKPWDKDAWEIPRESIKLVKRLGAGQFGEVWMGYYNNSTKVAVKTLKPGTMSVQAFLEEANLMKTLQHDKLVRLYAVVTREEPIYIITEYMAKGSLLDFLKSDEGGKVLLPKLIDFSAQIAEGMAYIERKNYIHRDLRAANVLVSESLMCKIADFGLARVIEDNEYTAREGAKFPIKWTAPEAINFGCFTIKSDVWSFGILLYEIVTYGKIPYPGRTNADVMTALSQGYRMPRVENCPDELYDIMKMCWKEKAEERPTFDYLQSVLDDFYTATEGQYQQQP
Chain of Intestinal-type alkaline phosphatase (P09923 whole entry): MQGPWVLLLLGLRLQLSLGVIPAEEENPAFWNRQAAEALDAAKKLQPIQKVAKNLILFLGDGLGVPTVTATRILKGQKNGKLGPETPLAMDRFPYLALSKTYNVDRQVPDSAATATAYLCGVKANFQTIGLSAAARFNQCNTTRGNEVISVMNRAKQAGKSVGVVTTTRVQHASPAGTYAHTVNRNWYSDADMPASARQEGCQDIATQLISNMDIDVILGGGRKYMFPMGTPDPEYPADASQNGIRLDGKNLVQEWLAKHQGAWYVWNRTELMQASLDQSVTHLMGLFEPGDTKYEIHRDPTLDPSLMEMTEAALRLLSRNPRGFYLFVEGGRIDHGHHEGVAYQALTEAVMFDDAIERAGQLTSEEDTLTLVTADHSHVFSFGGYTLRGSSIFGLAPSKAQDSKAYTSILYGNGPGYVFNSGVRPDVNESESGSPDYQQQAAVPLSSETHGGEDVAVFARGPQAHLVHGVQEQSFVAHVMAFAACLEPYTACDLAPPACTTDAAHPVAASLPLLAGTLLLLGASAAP
Chain of BDNF/NT-3 growth factors receptor (Q16620 whole entry): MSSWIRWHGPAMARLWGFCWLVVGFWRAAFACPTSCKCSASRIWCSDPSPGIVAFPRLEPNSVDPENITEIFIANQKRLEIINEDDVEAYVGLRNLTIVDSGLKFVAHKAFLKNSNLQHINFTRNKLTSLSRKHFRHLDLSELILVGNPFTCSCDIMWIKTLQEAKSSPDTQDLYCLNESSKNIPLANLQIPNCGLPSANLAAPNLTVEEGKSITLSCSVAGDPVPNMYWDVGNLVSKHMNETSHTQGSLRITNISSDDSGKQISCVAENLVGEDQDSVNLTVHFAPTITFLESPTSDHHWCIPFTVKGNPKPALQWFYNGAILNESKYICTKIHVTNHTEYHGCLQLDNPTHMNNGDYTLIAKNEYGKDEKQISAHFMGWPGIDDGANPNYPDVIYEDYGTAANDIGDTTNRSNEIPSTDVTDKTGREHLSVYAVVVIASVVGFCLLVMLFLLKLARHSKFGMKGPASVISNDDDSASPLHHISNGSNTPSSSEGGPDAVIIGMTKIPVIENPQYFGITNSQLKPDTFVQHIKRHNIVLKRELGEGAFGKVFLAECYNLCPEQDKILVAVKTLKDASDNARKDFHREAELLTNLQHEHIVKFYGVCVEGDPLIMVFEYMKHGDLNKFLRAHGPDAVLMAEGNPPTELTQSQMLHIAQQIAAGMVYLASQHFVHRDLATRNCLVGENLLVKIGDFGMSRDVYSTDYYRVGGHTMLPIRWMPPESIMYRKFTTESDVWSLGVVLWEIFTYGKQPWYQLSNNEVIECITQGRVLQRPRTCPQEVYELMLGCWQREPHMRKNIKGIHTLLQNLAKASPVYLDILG

| Compound | IC50 [1] | IC50 [2] | IC50 [3] | AC50 [6] | other results |
| --- | --- | --- | --- | --- | --- |
| CCC(C)n1c(NC(=O)c2ccccc2)c(C#N)c2nc3ccccc3nc21 (stereo unspecified) | 2.82 µM (active) | 0.984 µM (active) | 13.3 µM (active) | – | – |
| CCN1/C(=C\c2ccc3ccccc3[n+]2CC)Sc2cc(C)ccc21 | – | – | – | 7.75 µM (active) | IC50 [4]: 15.5 µM (active); IC50 [5]: 16.1 µM (inactive) |
| CCCCCCCCCCOC(=O)C[n+]1c(COc2ccc(C)cc2)n(C)c2ccccc21 | – | – | – | 19.3 µM (active) | – |
| O=C(CCl)Oc1ccc2occ(C(=O)c3cccs3)c2c1 | 10.7 µM (active) | 30.7 µM (active) | 21.4 µM (active) | – | – |
| CN1CCN(c2nc(C3=C(c4c[nH]c5ccccc45)C(=O)NC3=O)c3ccccc3n2)CC1 [SOTRASTAURIN] | – | – | – | – | Ki [7]: > 5.01 µM (inactive); Ki [8]: > 2.51 µM (inactive); Ki [9]: 0.794 µM (active); Ki [10]: > 3.98 µM (inactive); Ki [11]: > 1.58 µM (inactive); Ki [12]: > 7.94 µM (inactive) |
